Values of other authors in patent publication US20230106592A1, “METHOD FOR TREATING CANCER USING A COMBINATION OF DNA DAMAGING AGENTS AND ATR INHIBITORS” (Vertex Pharmaceuticals Incorporated, priority 2015, published 2023).
Like-named read-outs stand apart in the source and are kept apart here.

Test system: ovarian cancer
Conditions: cited from earlier work

Compound | Outcome of prior line of treatment (ovarian cancer subject with BRCA2 germline mutation) | Outcome of prior line of treatment (monotherapy, refractory high grade serous ovarian cancer subject)
O=C(c1cc(Cc2n[nH]c(=O)c3ccccc23)ccc1F)N1CCN(C(=O)C2CC2)CC1 [olaparib] | no response | 
Cn1ncnc1[C@H]1c2n[nH]c(=O)c3cc(F)cc(c23)N[C@@H]1c1ccc(F)cc1 [Talazoparib] |  | progressive disease after 10 months
